Reference: patent US20240287154A1, “MC3R AGONIST PEPTIDES” (The Regents of the University of Michigan, priority 2021, published 2024)
Non-standard residues stand in square brackets, D forms with d. Residues, ends and D or L forms follow the SMILES beside them. Phe(4-Br) = N[C@@H](Cc1ccc(Br)cc1)C(=O)O; Phe(4-I) = N[C@@H](Cc1ccc(I)cc1)C(=O)O; 2Nal = N[C@@H](Cc1ccc2ccccc2c1)C(=O)O; Nle = CCCC[C@H](N)C(=O)O; dAbu = CC[C@@H](N)C(=O)O

Assays:
[1] = target: T1, human MC3R (Homo sapiens, UniProt P41968); assay: Intracellular cAMP levels in live cells, MC3R agonist activity; type: cell-based; details: cAMP split-luciferase reporter cell line stably expressing human MC3R; direct agonist effect, measurement window 1
T1 construct: expressed in transfected cells
Procedure: The stable cell lines were grown and maintained in selection media consisting of Dulbecco's modified Eagle media (DMEM) with 4.5 g/l D-glucose, and 4 mM L-glutamine (Thermo Fisher Scientific, Waltham, MA), supplemented with 10% fetal bovine serum, 100 units/ml penicillin, 100 μg/ml streptomycin, 2.5 μg/ml amphotericin B, 200 μg/ml hygromycin B (for positive selection of the GScAMP22f luciferase reporter), and Geneticin™ (G418) 700 μg/ml (for MC3R or MC4R selection). Actual serum concentration during the assay is estimated to be about 1%. Cell line identity is routinely verified by qPCR and MC3R- and MC4R-specific oligonucleotides.
The assay for the determination of the CAMP response in live cells was described previously. […] Ccells were seeded at a density of 20,000 cells per well using 384-well poly-D lysine-coated, clear bottom, and black-wall assay plates (Corning Inc. Corning, NJ). Cells were allowed to attach to the plates for 18 to 24 h after which growth media was removed and 20 ul of 4% D-luciferin (Promega) in CO2 independent, serum-free medium (Thermo Fisher Scientific) was added to each well. […] Intracellular cAMP levels were measured using an FDSS 7000EX Functional Drug Screening System (Hamamatsu Photonics, Hamamatsu, Japan) in the Center for Chemical Genomics at the Life Sciences Institute. This instrument allowed the in-line addition of test-peptides and receptor agonists while simultaneously acquiring the luminescence signal from live cells. […] A submaximal forskolin (20 μM) concentration was also included to serve as a normalization reference to account for cell number variations and differences in assay transducer efficiency between cell lines.
With this set up it was possible to evaluate the direct agonist effect of the test-peptides on the MC3R and MC4R cell lines during measurement window 1, while the antagonist profile in the presence of EC90 α-MSH was determined on measurement window 2. […] EC50 or IC50 potency values were determined by non-linear regression by fitting the data to a sigmoid four-parameter variable slope model using the GraphPad Prism version 8.4 software package (San Diego CA).

[2] = target: human MC4R (Homo sapiens, UniProt P32245); assay: Intracellular cAMP levels in live cells, MC3R selectivity relative to MC4R; type: cell-based; details: cAMP assays in human MC3R and human MC4R stable cell lines
human MC4R, sequence (P32245 whole entry): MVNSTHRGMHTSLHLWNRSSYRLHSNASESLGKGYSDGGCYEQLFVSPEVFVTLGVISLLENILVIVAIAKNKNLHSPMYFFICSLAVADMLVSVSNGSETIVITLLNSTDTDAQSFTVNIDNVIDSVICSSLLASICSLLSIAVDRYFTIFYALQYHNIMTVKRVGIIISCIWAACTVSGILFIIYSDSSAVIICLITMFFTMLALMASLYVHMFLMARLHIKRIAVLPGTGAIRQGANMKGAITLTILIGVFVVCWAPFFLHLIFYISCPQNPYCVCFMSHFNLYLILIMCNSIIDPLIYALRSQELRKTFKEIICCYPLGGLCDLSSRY

T1 sequence (P41968 whole entry): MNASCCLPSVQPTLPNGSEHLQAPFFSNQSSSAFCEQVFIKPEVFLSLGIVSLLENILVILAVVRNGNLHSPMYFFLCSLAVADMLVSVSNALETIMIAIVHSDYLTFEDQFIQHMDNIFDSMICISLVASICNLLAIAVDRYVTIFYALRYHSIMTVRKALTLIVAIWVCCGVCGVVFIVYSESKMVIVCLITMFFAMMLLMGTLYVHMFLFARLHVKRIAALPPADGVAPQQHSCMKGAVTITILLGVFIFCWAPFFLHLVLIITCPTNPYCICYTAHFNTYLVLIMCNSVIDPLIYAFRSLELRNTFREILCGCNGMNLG

Compound	EC50 [1] [nM]	MC3R selectivity (relative to MC4R) [2]
CCCC[C@H](NC(C)=O)C(=O)N[C@H](C)C(=O)N[C@@H](Cc1c[nH]cn1)C(=O)N[C@@H](Cc1ccc(I)cc1)C(=O)N[C@@H](CCCNC(=N)N)C(=O)N[C@H](Cc1c[nH]c2ccccc12)C(=O)N[C@@H](CC(=O)O)C(=O)N[C@@H](CCCNC(=N)N)C(=O)N[C@@H](Cc1ccccc1)C(=O)NCC(=O)O [CTX-1167, Nle-D-Ala-His-Phe(4-I)-Arg-D-Trp-Asp-Arg-Phe-Gly] (Ac-[Nle][dA]H[Phe(4-I)]R[dW]DRFG-OH)	4.8	937
CCCC[C@H](NC(C)=O)C(=O)N[C@H](C)C(=O)N[C@@H](Cc1c[nH]cn1)C(=O)N[C@@H](Cc1ccc(Br)cc1)C(=O)N[C@@H](CCCNC(=N)N)C(=O)N[C@H](Cc1c[nH]c2ccccc12)C(=O)N[C@@H](CC(=O)O)C(=O)N[C@@H](CCCNC(=N)N)C(=O)N[C@@H](Cc1ccccc1)C(=O)NCC(=O)O [CTX-1165, Nle-D-Ala-His-Phe(4-Br)-Arg-D-Trp-Asp-Arg-Phe-Gly] (Ac-[Nle][dA]H[Phe(4-Br)]R[dW]DRFG-OH)	3	5598
CCCC[C@H](NC(C)=O)C(=O)N[C@H](C)C(=O)N[C@@H](Cc1c[nH]cn1)C(=O)N[C@@H](Cc1ccc(I)cc1)C(=O)N[C@@H](CCCNC(=N)N)C(=O)N[C@H](Cc1c[nH]c2ccccc12)C(=O)N[C@@H](CC(=O)O)C(=O)N[C@@H](CCCNC(=N)N)C(=O)N[C@@H](Cc1ccccc1)C(N)=O [CTX-1169, Nle-D-Ala-His-Phe(4-I)-Arg-D-Trp-Asp-Arg-Phe] (Ac-[Nle][dA]H[Phe(4-I)]R[dW]DRF-NH2)	4.8	200
CCCC[C@H](NC(C)=O)C(=O)N[C@H](C)C(=O)N[C@@H](Cc1c[nH]cn1)C(=O)N[C@@H](Cc1ccccc1)C(=O)N[C@@H](CCCNC(=N)N)C(=O)N[C@H](Cc1c[nH]c2ccccc12)C(=O)N[C@@H](CC(=O)O)C(=O)N[C@@H](CCCNC(=N)N)C(=O)N[C@@H](Cc1ccccc1)C(=O)NCC(=O)O [CTX-1122, Nle-D-Ala-His-Phe-Arg-D-Trp-Asp-Arg-Phe-Gly] (Ac-[Nle][dA]HFR[dW]DRFG-OH)	1.2	7,703
CCCC[C@H](NC(=O)[C@@H](NC(=O)[C@@H](N)Cc1ccc(O)cc1)C(C)C)C(=O)N[C@H](Cc1ccccc1)C(=O)N[C@@H](Cc1c[nH]cn1)C(=O)N[C@@H](Cc1ccccc1)C(=O)N[C@@H](CCCNC(=N)N)C(=O)N[C@H](Cc1c[nH]c2ccccc12)C(=O)N[C@@H](CC(=O)O)C(N)=O [CTX-1132, Tyr-Val-Nle-D-Phe-His-Phe-Arg-D-Trp-Asp] (H-YV[Nle][dF]HFR[dW]D-NH2)	3.9	6.8
CCCC[C@H](NC(=O)CNC(=O)COCCOCCNC(=O)CNC(=O)CCc1ccc(I)cc1)C(=O)N[C@H](C)C(=O)N[C@@H](Cc1c[nH]cn1)C(=O)N[C@@H](Cc1ccccc1)C(=O)N[C@@H](CCCNC(=N)N)C(=O)N[C@H](Cc1c[nH]c2ccccc12)C(=O)N[C@@H](CC(=O)O)C(=O)N[C@@H](CCCNC(=N)N)C(=O)N[C@H](Cc1ccccc1)C(=O)NCC(=O)O [CTX-1154, Gly-Nle-D-Ala-His-Phe-Arg-D-Trp-Asp-Arg-D-Phe-Gly]	5.8	1070
CCCC[C@H](NC(=O)[C@@H](NC(=O)[C@@H](N)Cc1ccc(O)cc1)C(C)C)C(=O)N[C@H](C)C(=O)N[C@@H](Cc1c[nH]cn1)C(=O)N[C@H](Cc1ccccc1)C(=O)N[C@@H](CCCNC(=N)N)C(=O)N[C@H](Cc1c[nH]c2ccccc12)C(=O)N[C@@H](CC(=O)O)C(N)=O [CTX-1109, Tyr-Val-Nle-D-Ala-His-D-Phe-Arg-D-Trp-Asp] (H-YV[Nle][dA]H[dF]R[dW]D-NH2)	13.1	10.6
CCCC[C@H](NC(=O)[C@@H](NC(=O)[C@@H](N)Cc1ccc(O)cc1)C(C)C)C(=O)N[C@H](CC)C(=O)N[C@@H](Cc1c[nH]cn1)C(=O)N[C@@H](Cc1ccccc1)C(=O)N[C@@H](CCCNC(=N)N)C(=O)N[C@H](Cc1c[nH]c2ccccc12)C(=O)N[C@@H](CC(=O)O)C(N)=O [CTX-1131, Tyr-Val-Nle-D-Abu-His-Phe-Arg-D-Trp-Asp] (H-YV[Nle][dAbu]HFR[dW]D-NH2)	6.6	65
CCCC[C@H](NC(=O)[C@@H](NC(=O)[C@@H](N)Cc1ccc(O)cc1)C(C)C)C(=O)N[C@H](Cc1ccccc1)C(=O)N[C@@H](Cc1c[nH]cn1)C(=O)N[C@@H](Cc1ccccc1)C(=O)N[C@@H](CCCNC(=N)N)C(=O)N[C@H](Cc1c[nH]c2ccccc12)C(=O)N[C@@H](CC(=O)O)C(=O)N[C@@H](CCCNC(=N)N)C(=O)N[C@@H](Cc1ccccc1)C(=O)NCC(=O)O [CTX-1136, Tyr-Val-Nle-D-Phe-His-Phe-Arg-D-Trp-Asp-Arg-Phe-Gly] (H-YV[Nle][dF]HFR[dW]DRFG-OH)	1.9	37
CCCC[C@H](NC(C)=O)C(=O)N[C@H](C)C(=O)N[C@@H](Cc1c[nH]cn1)C(=O)N[C@@H](Cc1ccccc1)C(=O)N[C@@H](CCCNC(=N)N)C(=O)N[C@H](Cc1c[nH]c2ccccc12)C(=O)N[C@@H](Cc1ccccc1)C(=O)N[C@@H](CCCNC(=N)N)C(=O)N[C@@H](Cc1ccccc1)C(=O)NCC(=O)O [CTX-1529, Nle-D-Ala-His-Phe-Arg-D-Trp-Phe-Arg-Phe-Gly] (Ac-[Nle][dA]HFR[dW]FRFG-OH)	4.8	82
CCCC[C@H](NC(C)=O)C(=O)N[C@H](C)C(=O)N[C@@H](Cc1c[nH]cn1)C(=O)N[C@@H](Cc1ccc2ccccc2c1)C(=O)N[C@@H](CCCNC(=N)N)C(=O)N[C@H](Cc1c[nH]c2ccccc12)C(=O)N[C@@H](CC(=O)O)C(=O)N[C@@H](CCCNC(=N)N)C(=O)N[C@@H](Cc1ccccc1)C(=O)NCC(=O)O [CTX-1512, Nle-D-Ala-His-Nal(2')-Arg-D-Trp-Asp-Arg-Phe-Gly] (Ac-[Nle][dA]H[2Nal]R[dW]DRFG-OH)	13.1	804
CCCC[C@H](NC(C)=O)C(=O)N[C@H](CC)C(=O)N[C@@H](Cc1c[nH]cn1)C(=O)N[C@@H](Cc1ccccc1)C(=O)N[C@@H](CCCNC(=N)N)C(=O)N[C@H](Cc1c[nH]c2ccccc12)C(=O)N[C@@H](CC(=O)O)C(=O)N[C@@H](CCCNC(=N)N)C(=O)N[C@@H](Cc1ccccc1)C(=O)NCC(=O)O [CTX-1144, Nle-D-Abu-His-Phe-Arg-D-Trp-Asp-Arg-Phe-Gly] (Ac-[Nle][dAbu]HFR[dW]DRFG-OH)	6.6	2,633
CCCC[C@H](NC(C)=O)C(=O)N[C@H](C)C(=O)N[C@@H](Cc1c[nH]cn1)C(=O)N[C@@H](Cc1ccccc1)C(=O)N[C@@H](CCCNC(=N)N)C(=O)N[C@H](Cc1c[nH]c2ccccc12)C(=O)NCC(=O)N[C@@H](CCCCN)C(=O)N1CCC[C@H]1C(=O)N[C@H](C(N)=O)C(C)C [CTX-1164, Nle-D-Ala-His-Phe-Arg-D-Trp-Gly-Lys-Pro-Val] (Ac-[Nle][dA]HFR[dW]GKPV-NH2)	1.5	83
CSCC[C@H](NC(=O)[C@@H](N)C(C)C)C(=O)NCC(=O)N[C@@H](Cc1c[nH]cn1)C(=O)N[C@@H](Cc1ccccc1)C(=O)N[C@@H](CCCNC(=N)N)C(=O)N[C@H](Cc1c[nH]c2ccccc12)C(=O)N[C@@H](CC(=O)O)C(=O)N[C@@H](CCCNC(=N)N)C(=O)N[C@@H](Cc1ccccc1)C(=O)NCC(=O)O [CTX-1546, Val-Met-Gly-His-Phe-Arg-D-Trp-Asp-Arg-Phe-Gly] (H-VMGHFR[dW]DRFG-OH)	1.7	51
CCCC[C@H](NC(=O)[C@@H](NC(=O)[C@@H](N)Cc1ccc(O)cc1)C(C)C)C(=O)N[C@H](C)C(=O)N[C@@H](Cc1c[nH]cn1)C(=O)N[C@@H](Cc1ccccc1)C(=O)N[C@@H](CCCNC(=N)N)C(=O)N[C@H](Cc1c[nH]c2ccccc12)C(=O)N[C@@H](CC(=O)O)C(=O)N[C@@H](CCCNC(=N)N)C(=O)N[C@@H](Cc1ccccc1)C(=O)NCC(N)=O [CTX-1118, Tyr-Val-Nle-D-Ala-His-Phe-Arg-D-Trp-Asp-Arg-Phe-Gly] (H-YV[Nle][dA]HFR[dW]DRFG-NH2)	1.2	59
CCCC[C@H](NC(=O)[C@@H](NC(=O)[C@@H](N)Cc1ccc(O)cc1)C(C)C)C(=O)N[C@@H](C)C(=O)N[C@@H](Cc1c[nH]cn1)C(=O)N[C@@H](Cc1ccccc1)C(=O)N[C@@H](CCCNC(=N)N)C(=O)N[C@H](Cc1c[nH]c2ccccc12)C(=O)N[C@@H](CC(=O)O)C(N)=O [CTX-1129, Tyr-Val-Nle-Ala-His-Phe-Arg-D-Trp-Asp] (H-YV[Nle]AHFR[dW]D-NH2)	1.2	7.5
